Assay [1] concerns Jurkat NFκB-luciferase cells. Put plainly: Jurkat NFκB-Luciferase Assay. The format is cell-based. Particulars: Homo sapiens; Jurkat NFκB-luciferase cells activated with anti-CD3 antibody (OKT3), 2.5 hrs at 37° C.; geometric mean; read-out: DGK NFKb Luciferase EC50. The method, boiled down:
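Jurkat NFκB-luciferase reporter cells stimulated on plate-bound anti-CD3 (5 ug/ml coating) with compound, 2.5 hrs at 37° C then 30 min at 25° C; luminescence read with One-Glo Ex. Normalized to DMSO (basal) and 1 micromolar compound (maximum) controls; EC50 from four-parameter fit, geometric mean across experiments.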

The target of another assay is human DGKα (Homo sapiens (Human), UniProt P23743). Put plainly: DGKα Biochemical Activity Assay (ADP-Glo). Particulars: recombinant DGKα 1 nM, 100 μM ATP, 18:1 DAG/POPS/octylglucoside micelles, 1 hour at 25° C.; geometric mean; read-out: HTBS DGKa 1X ATP KM IC50. The method, boiled down:
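Recombinant DGKα (1 nM final) was preincubated with compound for 15 min, then reacted for 1 h at 25 °C with 100 μM ATP and octylglucoside micelles of 0.85 mM 18:1 DAG and 6.75 mM POPS in pH 7.2 MOPS with 5 mM MgCl2. ADP formed was read by ADP-Glo luminescence. IC50 came from four-parameter fits normalized to DMSO and 50 μM CU3, and values were geometric means.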
(ADP-Glo turns the ADP formed in a reaction into a luminescent signal.)

Usually EC50 stands for the concentration at which the effect is half-maximal. Usually IC50 stands for the concentration at which inhibition is half-maximal.

Chain of human DGKα (P23743 whole entry): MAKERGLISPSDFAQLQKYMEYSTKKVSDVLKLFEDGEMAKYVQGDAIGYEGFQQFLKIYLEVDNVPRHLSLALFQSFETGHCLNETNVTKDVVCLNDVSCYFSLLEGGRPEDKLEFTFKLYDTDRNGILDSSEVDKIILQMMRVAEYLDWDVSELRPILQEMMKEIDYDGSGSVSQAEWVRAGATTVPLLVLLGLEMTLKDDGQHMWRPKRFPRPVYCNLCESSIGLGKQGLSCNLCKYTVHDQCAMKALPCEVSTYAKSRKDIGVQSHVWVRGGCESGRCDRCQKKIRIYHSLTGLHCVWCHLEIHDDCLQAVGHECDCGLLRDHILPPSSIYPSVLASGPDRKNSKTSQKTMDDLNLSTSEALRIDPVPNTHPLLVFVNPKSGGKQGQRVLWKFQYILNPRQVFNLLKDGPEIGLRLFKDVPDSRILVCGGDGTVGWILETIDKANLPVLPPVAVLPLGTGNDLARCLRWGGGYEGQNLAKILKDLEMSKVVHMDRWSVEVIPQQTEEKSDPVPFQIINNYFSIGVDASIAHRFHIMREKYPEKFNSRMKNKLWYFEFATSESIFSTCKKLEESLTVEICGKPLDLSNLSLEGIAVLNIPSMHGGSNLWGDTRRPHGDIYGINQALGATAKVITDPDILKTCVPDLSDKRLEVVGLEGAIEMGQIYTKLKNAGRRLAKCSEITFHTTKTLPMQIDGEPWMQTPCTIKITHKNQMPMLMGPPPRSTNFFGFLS

Consider `COc1ccc2c(N(C)c3cccc(-c4ccc(C(F)F)cc4)c3)nc3nnc(C)n3c2n1` [Example 133, N-(4′-(difluoromethyl)-[1,1′-biphenyl]-3-yl)-2-methoxy-N,9-dimethylpyrido[3,2-e][1,2,4]triazolo[4,3-a]pyrimidin-5-amine], for which the EC50 in assay [1] was determined as 1.98 nM. The IC50 on human DGKα amounted to 52.8 nM.
The like results for `Cc1nnc2nc(N(C)c3cccc(-c4ccc(C(F)F)cc4)c3)c3ccc(N)nc3n12` [Example 134, N5-(4′-(difluoromethyl)-[1,1′-biphenyl]-3-yl)-N5,9-dimethylpyrido[3,2-e][1,2,4]triazolo[4,3-a]pyrimidine-2,5-diamine] were, in that order, 8.3 nM and 12.3 nM.
The like results for `Cc1nnc2nc(N3CCCc4c(C#Cc5cnn(C)c5)cccc43)c3cc(F)cnc3n12` [Example 135] were, in that order, 3.1 nM and 4.03 nM.
On to `Cc1nnc2nc(N3CCOCc4c(C#CC(C)(C)C#N)cccc43)c3cc(F)cnc3n12` [Example 136], for which, in assay [1], the EC50 stood at 10.4 nM. The IC50 on human DGKα was 3.35 nM.
As to `Cc1nnc2nc(N3CCOCc4c(C#Cc5cnn(C)c5)cccc43)c3ccc(C(F)(F)F)nc3n12` [Example 137, 6-((1-methyl-1H-pyrazol-4-yl)ethynyl)-1-(9-methyl-2-(trifluoromethyl)pyrido[3,2-e][1,2,4]triazolo[4,3-a]pyrimidin-5-yl)-1,2,3,5-tetrahydrobenzo[e][1,4]oxazepane], in assay [1], the EC50 worked out at 5.67 nM. Moreover, the half-inhibitory concentration (IC50) on human DGKα was 8.38 nM.
The corresponding values for `Cc1nnc2nc(N3CCOCc4c(C#CC(C)(C)C#N)cccc43)c3ccc(C(F)(F)F)nc3n12` [Example 138, 2,2-dimethyl-4-(1-(9-methyl-2 (trifluoromethyl)pyrido[3,2-e][1,2,4]triazolo[4,3-a]pyrimidin-5-yl)-1,2,3,5-tetrahydrobenzo[e][1,4]oxazepin-6-yl)but-3-ynenitrile] are 4.35 nM and 6.56 nM.
The corresponding values for `Cc1nnc2nc(N3CCCc4c(C#Cc5cnn(C)c5)cccc43)c3ccc(C(F)(F)F)nc3n12` [Example 139, 9-methyl-5-(5-((1-methyl-1H-pyrazol-4-yl)ethynyl)-3,4-dihydroquinolin-1(2H)-yl)-2-(trifluoromethyl)pyrido[3,2-e][1,2,4]triazolo[4,3-a]pyrimidine] are 6.04 nM and 47.8 nM.
The like results for `Cc1nnc2nc(N3CCOCc4c(C#CC5(C)CC5)cccc43)c3ccc(C(F)(F)F)nc3n12` [Example 140, 1-(9-methyl-2-(trifluoromethyl)pyrido[3,2-e][1,2,4]triazolo[4,3-a]pyrimidin-5-yl)-6-((1-methylcyclopropyl)ethynyl)-1,2,3,5-tetrahydrobenzo[e][1,4]oxazepine] were, in that order, 2.37 nM and 11.5 nM.
In the case of `Cc1nnc2nc(N3CCOCc4c(C#CC(C)(C)O)cccc43)c3ccc(C(F)(F)F)nc3n12` [Example 141, 2-methyl-4-[1-[3-methyl-12-(trifluoromethyl)-2,4,5,7,13-pentazatricyclo[7.4.0.02,6]trideca-1(13),3,5,7,9,11-hexaen-8-yl]-3,5-dihydro-2H-4,1-benzoxazepin-6-yl]but-3-yn-2-ol], in assay [1], the EC50 was 55.8 nM. For the same compound, the IC50 at human DGKα was found to be 20.1 nM.
The corresponding values for `Cc1nnc2nc(N3CCCc4c(C#CC5(C(F)(F)F)CC5)cccc43)c3ccc(C(F)(F)F)nc3n12` [Example 142, 9-methyl-2-(trifluoromethyl)-5-(5-((1-(trifluoromethyl)cyclopropyl)ethynyl)-3,4-dihydroquinolin-1(2H)-yl)pyrido[3,2-e][1,2,4]triazolo[4,3-a]pyrimidine] are 0.464 nM and 712 nM.
Regarding `Cc1nnc2nc(N3CCCc4c(C#CC5(C)CC5)cccc43)c3ccc(C(F)(F)F)nc3n12` [Example 143, 9-methyl-5-(5-((1-methylcyclopropyl)ethynyl)-3,4-dihydroquinolin-1(2H)-yl)-2-(trifluoromethyl)pyrido[3,2-e][1,2,4]triazolo[4,3-a]pyrimidine], the EC50 in assay [1] amounted to 0.051 nM. Further, on human DGKα, the IC50 turned out to be 1.38 nM.
Turning to `Cc1nnc2nc(N3CCCc4c(C#CC(C)(C)C#N)cccc43)c3cc(F)cnc3n12` [Example 144, 4-(1-(3-fluoro-9-methylpyrido[3,2-e][1,2,4]triazolo[4,3-a]pyrimidin-5-yl)-1,2,3,4-tetrahydroquinolin-5-yl)-2,2-dimethylbut-3-ynenitrile], the EC50 in assay [1] is 4.67 nM. Besides, at human DGKα, the IC50 came out at 5.08 nM.
The like results for `Cc1nnc2nc(N3CCCc4c(C#CC(C)(C)O)cccc43)c3ccc(C(F)(F)F)nc3n12` [Example 145, 2-methyl-4-(1-(9-methyl-2-(trifluoromethyl)pyrido[3,2-e][1,2,4]triazolo[4,3-a]pyrimidin-5-yl)-1,2,3,4-tetrahydroquinolin-5-yl)but-3-yn-2-ol] were, in that order, 8.73 nM and 59.6 nM.
The like results for `CCC(O)C#Cc1cccc2c1CCCN2c1nc2nncn2c2ncc(F)cc12` (stereo not drawn) [Example 146, 1-(1-(3-fluoropyrido[3,2-e][1,2,4]triazolo[4,3-a]pyrimidin-5-yl)-1,2,3,4-tetrahydroquinolin-5-yl)pent-1-yn-3-ol] were, in that order, 18.1 nM and 7.78 nM.
The corresponding values for `CC(C)(C#N)C#Cc1cccc2c1CCCN2c1nc2nncn2c2ncc(F)cc12` [Example 147, 4-(1-(3-fluoropyrido[3,2-e][1,2,4]triazolo[4,3-a]pyrimidin-5-yl)-1,2,3,4-tetrahydroquinolin-5-yl)-2,2-dimethylbut-3-ynenitrile] are 4.24 nM and 4.38 nM.
On to `CCC(C)(O)C#Cc1cccc2c1CCCN2c1nc2nncn2c2ncc(F)cc12` (stereo not drawn) [Example 148, 1-(1-(3-fluoropyrido[3,2-e][1,2,4]triazolo[4,3-a]pyrimidin-5-yl)-1,2,3,4-tetrahydroquinolin-5-yl)-3-methylpent-1-yn-3-ol], for which the EC50 in assay [1] was 20.7 nM. For the same compound, the IC50 on human DGKα amounted to 13.7 nM.
The like results for `CC(C)(O)C#Cc1cccc2c1CCCN2c1nc2nncn2c2ncc(F)cc12` [Example 149, 4-(1-(3-fluoropyrido[3,2-e][1,2,4]triazolo[4,3-a]pyrimidin-5-yl)-1,2,3,4-tetrahydroquinolin-5-yl)-2-methylbut-3-yn-2-ol] were, in that order, 12 nM and 8.71 nM.
As to `Fc1cnc2c(c1)c(N1CCCc3c(C#CC4(C(F)(F)F)CC4)cccc31)nc1nncn12` [Example 150, 11-fluoro-8-[5-[2-[1-(trifluoromethyl)cyclopropyl]ethynyl]-3,4-dihydro-2H-quinolin-1-yl]-2,4,5,7,13-pentazatricyclo[7.4.0.02,6]trideca-1(13),3,5,7,9,11-hexaene], the EC50 in assay [1] came to 2.18 nM. Besides, the IC50 at human DGKα was determined as 8.44 nM.
In the case of `CCC1(C#Cc2cccc(N(C)c3nc4nncn4c4ncc(F)cc34)c2)CC1` [Example 151, N-[3-[2-(1-ethylcyclopropyl)ethynyl]phenyl]-11-fluoro-N-methyl-2,4,5,7,13-pentazatricyclo[7.4.0.02,6]trideca-1(13),3,5,7,9,11-hexaen-8-amine], the EC50 in assay [1] was 3.82 nM. Moreover, on human DGKα, the half-maximal inhibitory concentration (IC50) worked out at 51.4 nM.
The corresponding values for `CN(c1cccc(C#CC(C)(C)C)c1)c1nc2nncn2c2ncc(F)cc12` [Example 152] are 3.18 nM and 32 nM.
`CN(c1cccc(C#CC(C)(C)O)c1)c1nc2nncn2c2ncc(F)cc12` [Example 153]: the EC50 in assay [1] is 45.2 nM. For the same compound, the IC50 on human DGKα was 29.4 nM.
The corresponding values for `CN(c1cccc(C#CC2(C(F)(F)F)CC2)c1)c1nc2nncn2c2ncc(F)cc12` [Example 154, 3-fluoro-N-methyl-N-(3-((1-(trifluoromethyl)cyclopropyl)ethynyl)phenyl)pyrido[3,2-e][1,2,4]triazolo[4,3-a]pyrimidin-5-amine] are 3.54 nM and 20.7 nM.
With `CN(c1cccc(-c2ccc(C3CC3)cc2)c1)c1nc2nncn2c2ncc(F)cc12` [Example 155, N-(4′-cyclopropyl-[1,1′-biphenyl]-3-yl)-3-fluoro-N-methylpyrido[3,2-e][1,2,4]triazolo[4,3-a]pyrimidin-5-amine], the concentration giving a half-maximal response (EC50) in assay [1] is 0.707 nM. In addition, the IC50 on human DGKα was found to be 17.2 nM.
The like results for `CN(c1cc(F)cc(C#CC2(C(F)(F)F)CC2)c1)c1nc2nncn2c2ncc(F)cc12` [Example 156, 3-fluoro-N-(3-fluoro-5-((1-(trifluoromethyl)cyclopropyl)ethynyl)phenyl)-N-methylpyrido[3,2-e][1,2,4]triazolo[4,3-a]pyrimidin-5-amine] were, in that order, 2.69 nM and 10.7 nM.

For the origin of these results see US11926628B2 (Gilead Sciences, Inc., priority 2021, dated 2024).
